Experimental data published in PMC12635197, “Discovery of first-in-class inhibitors of the TRF1:TIN2 protein:protein interaction by fragment screening” (Scientific Reports, 2025).

Assays:
[1] = molecular target: TRF1TRFH; parameters: method as in PMID 18202258; settings: ITC; read-out: dissociation constant of TIN2TBM for TRF1TRFH; cited from earlier work
[2] = LC-MS analysis of original compound DMSO stock; assay type: physicochemical; settings: negative mode LC-MS
Source text: By measuring the R2 values of fragments with and without protein present in the sample, a strong indication of the extent of protein binding can be obtained. […] This increase in R2 was reversed upon addition of the TIN2TBM competitor. […] Nevertheless, given the strong binding activity of the fragment derivative 27 in the CPMG assay, a pure stock of 27 was synthesised and put forward for further characterisation using a quantitative LO-NMR assay to determine the dissociation constant.
Supplementary Figure 3: Negative mode LC-MS analysis of compound 25. The LC-UV
This value aligned with the molecular weight of compound 27 (251 g mol-1), conﬁrming that
(1 picture or pasted object on this page, not shown here)

| Compound | Kd [1] [nM] | stability in original screening DMSO stock [2] |
| --- | --- | --- |
| Ac-RHFNLAPLGRRRVQSQWASTR-CONH2 (Ac-RHFNLAPLGRRRVQSQWASTR-NH2) [TIN2TBM] | 300 | – |
| CCOc1ccc(S(=O)(=O)n2ccnc2)c2ccccc12 [Compound 25] | – | degraded into compound 27 |
